The values that follow come from article PMC4128814, “A High Throughput Screen Identifies Potent and Selective Inhibitors to Human Epithelial 15-Lipoxygenase-2” (PLoS ONE, 2014).

Molecules are shown by their SMILES. Where two headings read alike, the source gives them in different places.

The target of experiment [1] is T1, 15-LOX-2 (Homo sapiens, UniProt O15296).
T1 construct: His6 (N); made in house
T1 sequence (O15296 1-676): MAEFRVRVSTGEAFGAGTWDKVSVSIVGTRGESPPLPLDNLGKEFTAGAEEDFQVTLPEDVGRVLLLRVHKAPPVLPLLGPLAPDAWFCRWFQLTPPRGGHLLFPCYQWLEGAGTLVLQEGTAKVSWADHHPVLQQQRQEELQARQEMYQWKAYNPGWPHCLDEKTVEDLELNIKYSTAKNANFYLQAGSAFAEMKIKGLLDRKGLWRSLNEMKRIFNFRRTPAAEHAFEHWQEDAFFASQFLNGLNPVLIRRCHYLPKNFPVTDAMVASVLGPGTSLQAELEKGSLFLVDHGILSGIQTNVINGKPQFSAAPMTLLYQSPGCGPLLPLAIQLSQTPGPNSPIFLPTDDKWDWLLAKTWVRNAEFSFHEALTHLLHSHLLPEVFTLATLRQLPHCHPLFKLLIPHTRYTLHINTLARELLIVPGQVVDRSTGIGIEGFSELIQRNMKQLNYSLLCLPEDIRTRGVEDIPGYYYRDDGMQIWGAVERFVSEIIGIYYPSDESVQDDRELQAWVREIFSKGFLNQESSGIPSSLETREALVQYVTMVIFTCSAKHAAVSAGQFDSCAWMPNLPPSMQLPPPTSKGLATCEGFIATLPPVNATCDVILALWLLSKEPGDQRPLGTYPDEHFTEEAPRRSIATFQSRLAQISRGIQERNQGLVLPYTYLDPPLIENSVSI
The note with it: control molecules known not to inhibit 15-LOX-2; cited from earlier work.

For experiment [2], the target named is T1, 15-LOX-2. Description: Lipoxygenase UV-Vis assay, 15-LOX-2. It is filed as biochemical. Conditions: for inhibition at 25 µM: read-out: % Inhibition at 25 μM; for potency relative to parent compound: 15-LOX-2. How it is done: The reactions were initiated by adding 200 nM 15-LOX-2, 30 nM 12-LOX, 40 nM 15-LOX-1, or approximately 100–300 nM (5–10 µL) of 5-LOX crude extract to a cuvette with 2 mL reaction buffer, constantly stirred using a magnetic stir bar at room temperature (22°C). Reaction buffers used for various LOX isozymes were as follows: 25 mM HEPES (pH 7.3), 0.3 mM CaCl2, 0.1 mM EDTA, 0.2 mM ATP, 0.01% Triton X-100, 10 µM AA for the crude, ammonium sulfate precipitated 5-LOX; and 25 mM HEPES (pH 7.5), 0.01% Triton X-100, 10 µM AA for 15-LOX-2, 15-LOX-1, and 12-LOX. The substrate concentration was quantitatively determined by allowing the enzymatic reaction to go to completion in the presence of 15-LOX-2. […] The data were then plotted against inhibitor concentration, followed by a hyperbolic saturation curve fit (assuming total enzyme concentration [E]≪IC50). […] All inhibitors were stored at −20°C in DMSO. NDGA was utilized as positive control for the selectivity assays for the various LOX isozymes.
Once the two lead compounds were identified, a limited series of related compounds were identified and screened to investigate structure/activity relationships (Figure 3). […] We are currently exploring this line of inquiry.

Where [3] appears, read: 25 µM inhibitor, 15-LOX-2, 10 µM AA.

Consider `CC(=O)NC(c1cccs1)c1cc(Br)c2cccnc2c1O` (stereo not shown) [ML127], for which the IC50 (in general, the concentration that gives 50% inhibition) at 15-LOX-2 [1] is more than 100 µM.
Regarding `c1cncc(-c2nnc(C3CCCCC3)o2)c1` [MLS000033229], the inhibition (in general, the relative decrease from the control value, in per cent) at 25 µM on 15-LOX-2 [2] (setting [3]) stood at 4%. In addition, the IC50 on 15-LOX-2 [2] (read-out: 15-LOX-2 IC50) was more than 100 µM.
Turning to `c1ccc(CSc2ncn(-c3ccccc3)n2)cc1` [MLS000108825], the inhibition at 25 µM at 15-LOX-2 [2] (setting [3]) came out at 56%. Besides, at 15-LOX-2 [2] (read-out: 15-LOX-2 IC50), the IC50 amounted to 6.4 µM.
With `CC(=O)Nc1ccc(C(=O)CSc2ncn(-c3ccccc3)n2)cc1` [MLS000108839], on 15-LOX-2 [2] (setting [3]), the inhibition at 25 µM amounted to 0%. At 15-LOX-2 [2] (read-out: 15-LOX-2 IC50), the IC50 is more than 100 µM.
For the molecule `Clc1ccc(-c2nnc(CCc3ccccc3)o2)c(Cl)c1` [MLS000325223], the inhibition at 25 µM at 15-LOX-2 [2] (setting [3]) was 4%. For the same molecule, the IC50 on 15-LOX-2 [2] (read-out: 15-LOX-2 IC50) is more than 100 µM.
Turning to `O=[N+]([O-])c1cc(-c2nnc(C34CC5CC(CC(C5)C3)C4)o2)cc([N+](=O)[O-])c1` [MLS000544312], at 15-LOX-2 [2], the IC50 is more than 100 µM and the inhibition at 25 µM was found to be 0%.
For `Clc1ccc(CSc2ncn(-c3ccccc3)n2)cc1` [MLS000550104], the inhibition at 25 µM at 15-LOX-2 [2] (setting [3]) amounted to 94%. Moreover, the “potency relative to parent compound” value at 15-LOX-2 [2] was “approximately 4 fold”. Besides, at 15-LOX-2 [2] (read-out: 15-LOX-2 IC50), the IC50 came out at 0.74 µM.
As for `Clc1ccccc1CSc1ncn(-c2ccccc2)n1` [MLS000550113], the inhibition at 25 µM at 15-LOX-2 [2] (setting [3]) stood at 53%. Also, the IC50 at 15-LOX-2 [2] (read-out: 15-LOX-2 IC50) came to 9 µM.
As for `CCC1CCC(c2nnc(-c3ccc(Br)cc3)o2)CC1` (stereo not shown) [MLS000578382], the inhibition at 25 µM at 15-LOX-2 [2] (setting [3]) turned out to be 28%. The IC50 at 15-LOX-2 [2] (read-out: 15-LOX-2 IC50) is more than 50 µM.
With `O=[N+]([O-])c1cccc(-c2nnc(C34CC5CC(CC(C5)C3)C4)o2)c1` [MLS000585389], the inhibition at 25 µM at 15-LOX-2 [2] (setting [3]) was determined as 14%. The IC50 on 15-LOX-2 [2] (read-out: 15-LOX-2 IC50) was more than 100 µM.
Consider `Cc1ccc(NC(=O)CSc2ncn(-c3ccccc3)n2)cc1C` [MLS000594570], for which the inhibition at 25 µM at 15-LOX-2 [2] (setting [3]) amounted to 0%. In addition, on 15-LOX-2 [2] (read-out: 15-LOX-2 IC50), the IC50 was more than 100 µM.
The like results for `Clc1cccc(CSc2ncn(-c3ccccc3)n2)c1` [MLS000594591] were, in that order, 65% and 5.4 µM.
As to `CCC1CCC(c2nnc(-c3ccc([N+](=O)[O-])cc3)o2)CC1` (stereo not shown) [MLS000723362], the inhibition at 25 µM on 15-LOX-2 [2] (setting [3]) stood at 5%. In addition, the IC50 on 15-LOX-2 [2] (read-out: 15-LOX-2 IC50) was more than 100 µM.
The like results for `CCCc1nnc(-c2ccc(OC)cc2)o1` [MLS000756111] were, in that order, 0% and more than 100 µM.
Regarding `Clc1ccc(-c2nnc(C3CC3)o2)cc1` [MLS000859524], at 15-LOX-2 [2] (setting [3]), the inhibition at 25 µM came out at 4%. The IC50 at 15-LOX-2 [2] (read-out: 15-LOX-2 IC50) was more than 100 µM.
In the case of `O=C(c1nnc(-c2ccc(Cl)cc2)o1)C1CCCC1` [MLS001007221], the inhibition at 25 µM at 15-LOX-2 [2] (setting [3]) was 66%. The “potency relative to parent compound” value at 15-LOX-2 [2] is recorded as “comparable activity”. In addition, at 15-LOX-2 [2] (read-out: 15-LOX-2 IC50), the IC50 was 1.1 µM.
For `O=C(CCc1nnc(-c2ccccc2)o1)c1ccc(Cl)cc1` [MLS001019001], the inhibition at 25 µM on 15-LOX-2 [2] (setting [3]) was 6%. Besides, the IC50 on 15-LOX-2 [2] (read-out: 15-LOX-2 IC50) is more than 100 µM.
On to `O=C(c1nnc(-c2ccccc2)o1)C1CC1` [MLS001033918], for which the inhibition at 25 µM at 15-LOX-2 [2] (setting [3]) came to 3%. Moreover, the IC50 at 15-LOX-2 [2] (read-out: 15-LOX-2 IC50) is more than 100 µM.
